Values of other authors in patent US20110117194A1, “PHARMACEUTICAL FORMULATION CONTAINING ANGIOTENSIN-II RECEPTOR BLOCKER” (priority 2008, published 2011).

time to peak blood concentration (active losartan molecule released into blood): ≤ 1 h | plasma clearance rate (in vivo): 600 mL/min
Structure (SMILES): CCCCc1nc(Cl)c(CO)n1Cc1ccc(-c2ccccc2-c2nn[nH]n2)cc1 [losartan]
